Assay results reported in PubChem BioAssay AID248 (DTP/NCI, 2004).
Toxic doses and inconclusive results are not listed. Cut-off read from the data, not from the text of the source: active = T/C of 150% or more; inactive = T/C below 125%.

Tested on: L1210 leukemia ip in BDF1 mice, survival T/C
Experiment: NCI In Vivo Anticancer Drug Screen. Data for tumor model L1210 Leukemia (intraperitoneal) in B6D2F1 (BDF1) mice
Conditions: endpoint: mean survival time, higher = longer survival
Outline: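 Tumor cells were implanted, animals were treated, and survival was followed. The result divides the treated measurement by the vehicle-control measurement.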

[1] = dose: 50.0 mg/kg/injection, schedule: Q04DX003 (ip), vehicle: saline
[2] = dose: 100.0 mg/kg/injection, schedule: Q01DX001 (ip), vehicle: saline
[3] = dose: 100.0 mg/kg/injection, schedule: Q04DX003 (ip), vehicle: saline
[4] = dose: 200.0 mg/kg/injection, schedule: Q01DX001 (ip), vehicle: saline
[5] = dose: 200.0 mg/kg/injection, schedule: Q04DX003 (ip), vehicle: saline
[6] = dose: 400.0 mg/kg/injection, schedule: Q04DX003 (ip), vehicle: saline

Measured: T/C

N#C/C([SH2+])=C(/[SH2+])C#N.N#C/C([SH2+])=C(/[SH2+])C#N.N#C/C([SH2+])=C(/[SH2+])C#N.N#C/C([SH2+])=C(/[SH2+])C#N.[Co+3].[Co+3].c1ccc([P+](c2ccccc2)(c2ccccc2)c2ccccc2)cc1
inactive: [1] 105 % of control | [2] 105 % of control | [3] 97 % of control | [4] 109 % of control | [5] 108 % of control

O=C(SCc1ccccc1)C(O)c1ccccc1 (centres undefined)
inactive: [3] 94 % of control | [5] 100 % of control | [6] 97 % of control

CN(C)/N=C\c1ccc(C(=O)O)cc1
inactive: dose: 50.0 mg/kg/injection, schedule: Q04DX003 (ip), vehicle: Klucel (hydroxypropylcellulose) (HPC) 92 % of control | [1] 114 % of control | dose: 100.0 mg/kg/injection, schedule: Q04DX003 (ip), vehicle: Klucel (hydroxypropylcellulose) (HPC) 88 % of control | [3] 109 % of control | dose: 200.0 mg/kg/injection, schedule: Q04DX003 (ip), vehicle: Klucel (hydroxypropylcellulose) (HPC) 95 % of control | [5] 114 % of control | dose: 400.0 mg/kg/injection, schedule: Q04DX003 (ip), vehicle: Klucel (hydroxypropylcellulose) (HPC) 93 % of control | [6] 100 % of control

NC(N)=N/N=C/c1ccccc1 (tested in a mixture with another compound)
inactive: dose: 12.5 mg/kg/injection, schedule: Q04DX003 (ip), vehicle: acetone 93 % of control | dose: 25.0 mg/kg/injection, schedule: Q04DX003 (ip), vehicle: acetone 96 % of control | dose: 50.0 mg/kg/injection, schedule: Q04DX003 (ip), vehicle: acetone 91 % of control

COc1cc(C(=O)NC(CCC(=O)O)C(=O)O)ccc1N(C)Cc1cnc2nc(N)nc(N)c2n1 (centres undefined)
active: dose: 6.25 mg/kg/injection, schedule: Q01DX009 (ip), vehicle: sodium bicarbonate 154 % of control | dose: 25.0 mg/kg/injection, schedule: Q01DX009 (ip), vehicle: sodium bicarbonate 178 % of control

Cc1cccc(C)c1N(N=O)C(=O)c1ccccc1
inactive: dose: 75.0 mg/kg/injection, schedule: Q01DX001 (ip), vehicle: saline 98 % of control | dose: 150.0 mg/kg/injection, schedule: Q01DX001 (ip), vehicle: saline 98 % of control

CCCCOc1c(Cl)c(Cl)c(O)c(Cl)c1Cl
inactive: dose: 50.0 mg/kg/injection, schedule: Q01DX009 (ip), vehicle: acetone 101 % of control | [1] 97 % of control | [2] 93 % of control | dose: 100.0 mg/kg/injection, schedule: Q01DX009 (ip), vehicle: acetone 93 % of control | [3] 94 % of control | [4] 88 % of control | [5] 87 % of control

CC1(C)CSCC(C)(C)C(=O)C1=O
inactive: dose: 50.0 mg/kg/injection, schedule: Q04DX002 (ip), vehicle: saline with Tween-80 100 % of control | dose: 100.0 mg/kg/injection, schedule: Q04DX002 (ip), vehicle: saline with Tween-80 109 % of control | dose: 200.0 mg/kg/injection, schedule: Q04DX002 (ip), vehicle: saline with Tween-80 103 % of control

CCOC(=O)CS(=O)c1c([N+](=O)[O-])ncn1C (centres undefined)
inactive: dose: 6.25 mg/kg/injection, schedule: Q01DX009 (ip), vehicle: saline with Tween-80 97 % of control | dose: 12.5 mg/kg/injection, schedule: Q01DX009 (ip), vehicle: saline with Tween-80 94 % of control | dose: 25.0 mg/kg/injection, schedule: Q01DX009 (ip), vehicle: saline with Tween-80 103 % of control

O=C(c1ccccc1)c1cc2ccccc2oc1=O
inactive: dose: 100.0 mg/kg/injection, schedule: Q01DX001 (ip), vehicle: Klucel (hydroxypropylcellulose) (HPC) 103 % of control | dose: 200.0 mg/kg/injection, schedule: Q01DX001 (ip), vehicle: Klucel (hydroxypropylcellulose) (HPC) 98 % of control | dose: 400.0 mg/kg/injection, schedule: Q01DX001 (ip), vehicle: Klucel (hydroxypropylcellulose) (HPC) 90 % of control
